What was measured:
[1] = system: PBMC; assay: Antiinflammatory activity in human PBMC assessed as inhibition of LPS-induced TNFalpha production; assay type: functional, cell-based
[2] = Immunosuppressive activity in human T cells assessed as inhibition of LFA1-mediated cell proliferation by mixed lymphocyte reaction assay; assay type: functional, cell-based

SMILES	IC50 [1] [µM]	IC50 [2] [µM]
CCOc1nc(N)nc2ncc(-c3ccc(C(F)(F)F)cc3)nc12	> 10	10
CCOc1nc(N)nc2ncc(-c3ccc(F)c(F)c3)nc12	> 10	> 10
CCOc1nc(N)nc2ncc(-c3cccc(OC)c3)nc12	10	8.3
CCOc1nc(N)nc2ncc(-c3ccc(C#N)cc3)nc12	> 10	> 10
CCOc1nc(N)nc2ncc(-c3ccc(CC)cc3)nc12	8.5	8.2
CCOc1nc(N)nc2ncc(-c3ccc(Cl)c(Cl)c3)nc12	> 10	> 10
CCOc1nc(N)nc2ncc(-c3ccc(OC)cc3)nc12	4.5	> 10
CC(C)Oc1nc(N)nc2ncc(-c3ccc(C(F)(F)F)cc3)nc12	9.1	> 10
CC(C)Oc1nc(N)nc2ncc(-c3ccc(F)c(F)c3)nc12	6.6	10
COc1ccc(-c2cnc3nc(N)nc(OC(C)C)c3n2)cc1	6.2	> 10
CCOc1ccc(-c2cnc3nc(N)nc(OC(C)C)c3n2)cc1	10	10
Cc1ccc(-c2cnc3nc(N)nc(OC(C)C)c3n2)cc1C	6.7	10
COc1ccc(-c2cnc3nc(N)nc(OC(C)C)c3n2)cc1OC	2.3	0.4
CC(C)Oc1nc(N)nc2ncc(-c3ccc(C#N)cc3)nc12	6.3	> 10
COc1ccc(-c2cnc3nc(N)nc(NCc4ccccc4)c3n2)cc1OC	6.5	13
COc1ccc(-c2cnc3nc(N)nc(NCCc4ccccc4)c3n2)cc1OC	7.1	6
COc1ccc(-c2cnc3nc(N)nc(NC4CCCC4)c3n2)cc1OC	0.6	0.8
COc1ccc(-c2cnc3nc(N)nc(NC(C)C)c3n2)cc1OC	0.3	0.6
COc1ccc(-c2cnc3nc(N)nc(N4CCC(C)CC4)c3n2)cc1OC	0.3	0.8
COc1ccc(-c2cnc3nc(N)nc(NCc4cccs4)c3n2)cc1OC	7.2	4.1
COc1ccc(-c2cnc3nc(N)nc(N4CCOCC4)c3n2)cc1OC	0.4	0.1

SMILES	IC50 [1] [µM]	IC50 [2] [µM]
COc1ccc(-c2cnc3nc(N)nc(N4CCSCC4)c3n2)cc1OC	0.5	0.4
COc1ccc(-c2cnc3nc(N)nc(N4CCN(c5ccccc5)CC4)c3n2)cc1OC	0.05	0.4
COc1ccc(-c2cnc3nc(N)nc(N4CCN(c5ccc(C)cc5)CC4)c3n2)cc1OC	0.01	0.3
COc1ccc(-c2cnc3nc(N)nc(N4CCN(c5cc(Cl)cc(Cl)c5)CC4)c3n2)cc1OC	0.5	3.4
COc1ccc(-c2cnc3nc(N)nc(N4CCN(c5ccc(F)cc5)CC4)c3n2)cc1OC	0.05	0.1
COc1ccc(-c2cnc3nc(N)nc(N4CCN(Cc5ccccc5)CC4)c3n2)cc1OC	0.09	–
COc1ccc(-c2cnc3nc(N)nc(N4CCN(Cc5c(Cl)cccc5Cl)CC4)c3n2)cc1OC	0.7	7.6
COc1ccc(-c2cnc3nc(N)nc(N4CCN(Cc5ccccc5F)CC4)c3n2)cc1OC	0.2	0.7
COc1ccc(-c2cnc3nc(N)nc(N4CCN(Cc5ccc(C(C)(C)C)cc5)CC4)c3n2)cc1OC	0.7	4.3
COc1ccc(-c2cnc3nc(N)nc(N4CCN(C(=O)c5ccccc5)CC4)c3n2)cc1OC	0.4	0.4
COc1ccc(-c2cnc3nc(N)nc(N4CCN(C(=O)CCc5ccccc5)CC4)c3n2)cc1OC	0.01	0.1
COc1ccc(-c2cnc3nc(N)nc(N4CCN(C(=O)COc5ccccc5)CC4)c3n2)cc1OC	0.08	0.004
COc1ccc(-c2cnc3nc(N)nc(N4CCN(C(=O)COc5ccc(Cl)cc5)CC4)c3n2)cc1OC	0.077	0.0005
COc1ccc(-c2cnc3nc(N)nc(N4CCN(C(=O)Nc5ccccc5)CC4)c3n2)cc1OC	0.09	0.0034
COc1ccc(-c2cnc3nc(N)nc(N4CCN(C(=O)Nc5ccc(F)cc5)CC4)c3n2)cc1OC	0.51	0.007
COc1ccc(-c2cnc3nc(N)nc(N4CCN(C(=O)Nc5ccc(C)cc5)CC4)c3n2)cc1OC	0.43	0.0008
COc1ccc(-c2cnc3nc(N)nc(N4CCN(C(=O)Nc5ccc(C#N)cc5)CC4)c3n2)cc1OC	0.63	0.074
COc1ccc(-c2cnc3nc(N)nc(N4CCN(C(=O)Nc5cccc(C)c5)CC4)c3n2)cc1OC	0.1	0.007
COc1ccc(-c2cnc3nc(N)nc(N4CCN(C(=O)NCc5ccccc5)CC4)c3n2)cc1OC	–	0.018
COc1ccc(-c2cnc3nc(N)nc(N4CCN(C(=O)NCc5ccc(F)cc5)CC4)c3n2)cc1OC	0.7	0.037

From ChEMBL document CHEMBL1641582, “Synthesis and in vitro evaluation of 2-amino-4-N-piperazinyl-6-(3,4-dimethoxyphenyl)-pteridines as dual immunosuppressive and anti-inflammatory agents” (Bioorg Med Chem Lett, 2011)
